Reference: patent US11045453B1 (priority 2020, dated 2021)
Entries after “also recorded” stand apart in the source; their conditions may differ.

Key:
[1] = tested on: SARS-CoV-2 clinical isolate (2019-nCoV/USA-WA1/2020); type: cell-based
[2] = tested on: VSVpp+SARS-2-S Δ18 in Vero-E6 cells; type: cell-based, African green monkey
Human Trypsin-6 = Human Trypsin-6 (Homo sapiens, UniProt Q8NHM4); experiment: Ki determination, chromogenic substrate cleavage; type: biochemical; settings: read-out: Ki Mean ± SD (n)
Human TMPRSS11(A) = molecular target: T1, Human TMPRSS11(A) (Homo sapiens, UniProt Q6ZMR5); experiment: Ki determination, chromogenic substrate cleavage; type: biochemical; settings: read-out: Ki Mean ± SD (n)
T1 construct: purchased MyBioSource MBS1345824; host or cells: mammalian expression system
Procedure: The Ki was determined to be 0.39±0.01 (3) μM.

Human Enterokinase = Human Enterokinase (Homo sapiens, UniProt P98073); experiment: Ki determination, chromogenic substrate cleavage; type: biochemical; settings: read-out: Ki Mean ± SD (n)
Human Thrombin = molecular target: T2, Human Thrombin (Homo sapiens, UniProt P00734); experiment: Ki determination, chromogenic substrate cleavage; type: biochemical; settings: read-out: Ki Mean ± SD (n)
T2 construct: Human Thrombin

Human uPA = Human uPA (Homo sapiens, UniProt P00749); experiment: Ki determination, chromogenic substrate cleavage; type: biochemical; settings: read-out: Ki Mean ± SD (n)
Human FXIa = molecular target: T3, Human FXIa (Homo sapiens, UniProt P03951); experiment: Ki determination, chromogenic substrate cleavage; type: biochemical; settings: read-out: Ki Mean ± SD (n)
T3 construct: Human FXIa

Human two-chain tPA = molecular target: T4, Human two-chain tPA (Homo sapiens, UniProt P00750); experiment: Ki determination, chromogenic substrate cleavage; type: biochemical; settings: read-out: Ki Mean ± SD (n)
T4 construct: Human two-chain tPA

Human HAT = Human HAT (Homo sapiens, UniProt O60235); experiment: Ki determination, chromogenic substrate cleavage; type: biochemical; settings: read-out: Ki Mean ± SD (n)
Human Plasmin = molecular target: T5, Human Plasmin (Homo sapiens, UniProt P00747); experiment: Ki determination, chromogenic substrate cleavage; type: biochemical; settings: read-out: Ki Mean ± SD (n)
T5 construct: Human Plasmin

Human FIXa = molecular target: T6, Human FIXa (Homo sapiens, UniProt P00740); experiment: Ki determination, chromogenic substrate cleavage; type: biochemical; settings: read-out: Ki Mean ± SD (n)
T6 construct: Human FIXa

Human Fxa = molecular target: T7, Human Fxa (Homo sapiens, UniProt P00742); experiment: Ki determination, chromogenic substrate cleavage; type: biochemical; settings: read-out: Ki Mean ± SD (n)
T7 construct: Human Fxa

Human TMPRSS2 = molecular target: T8, Human TMPRSS2 (Homo sapiens, UniProt O15393); experiment: Ki determination, chromogenic substrate cleavage; type: biochemical; settings: read-out: Ki Mean ± SD (n)
T8 construct: purchased MyBioSource MBS1193731; host or cells: mammalian expression system
Procedure: The Ki was determined to be 2.9±0.04 (3) μM.

Human C1s = Human C1s (Homo sapiens, UniProt P09871); experiment: Ki determination, chromogenic substrate cleavage; type: biochemical; settings: read-out: Ki Mean ± SD (n)
[3] = molecular target: Human Activated Protein C (Homo sapiens, UniProt P04070); experiment: Ki determination, chromogenic substrate cleavage; type: biochemical; settings: read-out: Ki Mean ± SD (n)
Human Hepsin = Human Hepsin (Homo sapiens, UniProt P05981); experiment: Ki determination, chromogenic substrate cleavage; type: biochemical; settings: read-out: Ki Mean ± SD (n)
Human Matriptase-2 = Human Matriptase-2 (Homo sapiens, UniProt Q8IU80); experiment: Ki determination, chromogenic substrate cleavage; type: biochemical; settings: read-out: Ki Mean ± SD (n)
Human Spinesin = Human Spinesin (Homo sapiens, UniProt Q9H3S3); experiment: Ki determination, chromogenic substrate cleavage; type: biochemical; settings: read-out: Ki Mean ± SD (n)
Human DESC-1 = Human DESC-1 (Homo sapiens, UniProt Q9UL52); experiment: Ki determination, chromogenic substrate cleavage; type: biochemical; settings: read-out: Ki Mean ± SD (n)
Human PRSS27 = Human PRSS27 (Homo sapiens, UniProt Q9BQR3); experiment: Protease inhibition (IC50), chromogenic substrate cleavage; type: biochemical; settings: listed as marked (IC50) in the Ki column, read-out: IC50 Mean ± SD (n)
Human Plasma Kallikrein = Human Plasma Kallikrein (Homo sapiens, UniProt P03952); experiment: Ki determination, chromogenic substrate cleavage; type: biochemical; settings: read-out: Ki Mean ± SD (n)
Human HGFA = Human HGFA (Homo sapiens, UniProt Q04756); experiment: Ki determination, chromogenic substrate cleavage; type: biochemical; settings: read-out: Ki Mean ± SD (n)
Human Granzyme A = Human Granzyme A (Homo sapiens, UniProt P12544); experiment: Ki determination, chromogenic substrate cleavage; type: biochemical; settings: read-out: Ki Mean ± SD (n)
Human Kallikrein-8 = Human Kallikrein-8 (Homo sapiens, UniProt O60259); experiment: Ki determination, chromogenic substrate cleavage; type: biochemical; settings: read-out: Ki Mean ± SD (n)
Human Kallikrein-1 = Human Kallikrein-1 (Homo sapiens, UniProt P06870); experiment: Ki determination, chromogenic substrate cleavage; type: biochemical; settings: read-out: Ki Mean ± SD (n)
Human Kallikrein-11 = Human Kallikrein-11 (Homo sapiens, UniProt Q9UBX7); experiment: Ki determination, chromogenic substrate cleavage; type: biochemical; settings: read-out: Ki Mean ± SD (n)
Human Prostasin = Human Prostasin (Homo sapiens, UniProt Q16651); experiment: Protease inhibition (IC50), chromogenic substrate cleavage; type: biochemical; settings: listed as marked (IC50) in the Ki column, read-out: IC50 Mean ± SD (n)
Rat uPA = Rat uPA (Rattus norvegicus, UniProt P29598); experiment: Ki determination, chromogenic substrate cleavage; type: biochemical; settings: read-out: Ki Mean ± SD (n)
[4] = molecular target: Bovine Cationic Trypsin-1 (Bos taurus, UniProt P00760); experiment: Ki determination, chromogenic substrate cleavage; type: biochemical; settings: read-out: Ki Mean ± SD (n)
Rabbit uPA = Rabbit uPA (Oryctolagus cuniculus, UniProt Q8MHY7); experiment: Ki determination, chromogenic substrate cleavage; type: biochemical; settings: read-out: Ki Mean ± SD (n)
[5] = molecular target: Human uPA (Q192A in medium) (Homo sapiens, UniProt P00749, Q373A); experiment: Ki determination, chromogenic substrate cleavage; type: biochemical; settings: read-out: Ki Mean ± SD (n)
[6] = molecular target: Human uPA (H99A in medium) (Homo sapiens, UniProt P00749, H272A); experiment: Ki determination, chromogenic substrate cleavage; type: biochemical; settings: read-out: Ki Mean ± SD (n)
Mouse uPA = Mouse uPA (Mus musculus, UniProt P06869); experiment: Ki determination, chromogenic substrate cleavage; type: biochemical; settings: read-out: Ki Mean ± SD (n)
[7] = tested on: VSVpp+SARS-2-S Δ18 in Calu-3 cells; type: cell-based, human
[8] = tested on: VSV-G pseudotypes in Calu-3 cells; type: cell-based, human
Human Trypsin-3 = Human Trypsin-3 (Homo sapiens, UniProt P35030); experiment: biochemical
Human Trypsin-2 = Human Trypsin-2 (Homo sapiens, UniProt P07478); experiment: biochemical
Human Trypsin-1 = Human Trypsin-1 (Homo sapiens, UniProt P07477); experiment: biochemical

Chain of Human Enterokinase (P98073 whole entry): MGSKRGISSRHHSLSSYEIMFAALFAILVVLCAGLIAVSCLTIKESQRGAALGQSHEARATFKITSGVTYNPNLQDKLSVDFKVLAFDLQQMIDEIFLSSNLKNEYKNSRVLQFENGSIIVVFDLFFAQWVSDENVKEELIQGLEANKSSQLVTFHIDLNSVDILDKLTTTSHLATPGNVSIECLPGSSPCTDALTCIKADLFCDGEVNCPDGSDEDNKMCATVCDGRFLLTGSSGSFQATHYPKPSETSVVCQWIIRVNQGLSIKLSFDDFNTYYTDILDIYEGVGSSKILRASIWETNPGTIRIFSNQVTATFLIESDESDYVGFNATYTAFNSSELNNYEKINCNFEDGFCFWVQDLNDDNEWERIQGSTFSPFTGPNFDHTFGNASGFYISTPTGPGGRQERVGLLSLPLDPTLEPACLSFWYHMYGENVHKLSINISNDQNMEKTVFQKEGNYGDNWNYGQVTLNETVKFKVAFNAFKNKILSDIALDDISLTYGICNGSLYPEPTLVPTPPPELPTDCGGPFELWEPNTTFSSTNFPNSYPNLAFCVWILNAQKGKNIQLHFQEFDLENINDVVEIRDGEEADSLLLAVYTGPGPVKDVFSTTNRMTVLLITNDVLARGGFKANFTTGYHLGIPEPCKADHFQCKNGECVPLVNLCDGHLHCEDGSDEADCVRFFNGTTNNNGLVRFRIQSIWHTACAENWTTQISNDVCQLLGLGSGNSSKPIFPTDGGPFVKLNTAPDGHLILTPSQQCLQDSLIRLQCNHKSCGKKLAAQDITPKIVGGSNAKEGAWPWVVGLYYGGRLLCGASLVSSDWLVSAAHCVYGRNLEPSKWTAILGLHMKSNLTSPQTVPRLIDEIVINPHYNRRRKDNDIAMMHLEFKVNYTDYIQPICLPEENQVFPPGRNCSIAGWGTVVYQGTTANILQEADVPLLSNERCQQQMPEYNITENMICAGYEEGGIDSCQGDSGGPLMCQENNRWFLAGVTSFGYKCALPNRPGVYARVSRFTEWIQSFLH
Chain of Human Granzyme A (P12544 29-262): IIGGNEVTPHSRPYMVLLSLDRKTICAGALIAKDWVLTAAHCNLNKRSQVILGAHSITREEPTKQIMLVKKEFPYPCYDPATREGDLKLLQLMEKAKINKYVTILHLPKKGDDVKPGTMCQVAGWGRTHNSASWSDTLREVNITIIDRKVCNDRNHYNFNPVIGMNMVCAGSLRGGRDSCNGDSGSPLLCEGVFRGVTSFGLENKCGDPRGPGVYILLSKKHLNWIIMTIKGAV
Chain of Human Kallikrein-11 (Q9UBX7 54-282): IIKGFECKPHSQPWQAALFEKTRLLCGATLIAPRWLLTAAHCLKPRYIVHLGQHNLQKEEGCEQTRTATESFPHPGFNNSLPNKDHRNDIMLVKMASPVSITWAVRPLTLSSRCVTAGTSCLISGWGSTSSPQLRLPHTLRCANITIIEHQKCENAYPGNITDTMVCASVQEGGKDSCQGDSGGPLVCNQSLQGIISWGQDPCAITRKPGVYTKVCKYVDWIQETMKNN
Chain of Human Activated Protein C (P04070 212-450 limits assumed): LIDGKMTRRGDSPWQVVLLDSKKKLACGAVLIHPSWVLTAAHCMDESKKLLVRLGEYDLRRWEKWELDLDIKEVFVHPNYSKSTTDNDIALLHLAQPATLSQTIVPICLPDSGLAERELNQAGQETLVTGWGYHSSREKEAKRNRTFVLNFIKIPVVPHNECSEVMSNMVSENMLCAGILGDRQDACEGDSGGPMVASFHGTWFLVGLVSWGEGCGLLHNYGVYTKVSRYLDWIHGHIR
Chain of Human Activated Protein C (P04070 43-197 partner limits assumed): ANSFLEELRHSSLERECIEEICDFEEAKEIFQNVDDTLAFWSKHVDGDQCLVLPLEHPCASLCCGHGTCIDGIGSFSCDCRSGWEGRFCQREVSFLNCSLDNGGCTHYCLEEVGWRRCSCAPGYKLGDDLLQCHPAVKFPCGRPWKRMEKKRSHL
T5 sequence (P00747 581-810 limits assumed): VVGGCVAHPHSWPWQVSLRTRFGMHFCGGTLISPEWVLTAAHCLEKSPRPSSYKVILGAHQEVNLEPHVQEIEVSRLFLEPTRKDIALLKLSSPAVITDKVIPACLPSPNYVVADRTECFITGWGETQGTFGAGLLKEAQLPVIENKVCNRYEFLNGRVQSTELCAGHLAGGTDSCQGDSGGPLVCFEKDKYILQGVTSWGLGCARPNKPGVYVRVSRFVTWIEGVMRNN
T5 sequence (P00747 97-580 partner limits assumed): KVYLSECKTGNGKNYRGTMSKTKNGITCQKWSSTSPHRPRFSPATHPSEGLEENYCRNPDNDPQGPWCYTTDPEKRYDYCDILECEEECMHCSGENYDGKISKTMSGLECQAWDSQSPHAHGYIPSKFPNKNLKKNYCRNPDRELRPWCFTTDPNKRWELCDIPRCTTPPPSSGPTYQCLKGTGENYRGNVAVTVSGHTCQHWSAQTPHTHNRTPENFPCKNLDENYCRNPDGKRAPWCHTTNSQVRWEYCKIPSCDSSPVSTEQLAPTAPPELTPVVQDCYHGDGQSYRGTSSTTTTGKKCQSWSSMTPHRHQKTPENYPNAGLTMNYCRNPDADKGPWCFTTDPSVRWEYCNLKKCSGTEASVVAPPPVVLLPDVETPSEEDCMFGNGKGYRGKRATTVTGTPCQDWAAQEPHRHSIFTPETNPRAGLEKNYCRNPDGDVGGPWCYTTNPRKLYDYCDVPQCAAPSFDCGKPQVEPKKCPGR
Chain of Human Trypsin-3 (P35030 whole entry): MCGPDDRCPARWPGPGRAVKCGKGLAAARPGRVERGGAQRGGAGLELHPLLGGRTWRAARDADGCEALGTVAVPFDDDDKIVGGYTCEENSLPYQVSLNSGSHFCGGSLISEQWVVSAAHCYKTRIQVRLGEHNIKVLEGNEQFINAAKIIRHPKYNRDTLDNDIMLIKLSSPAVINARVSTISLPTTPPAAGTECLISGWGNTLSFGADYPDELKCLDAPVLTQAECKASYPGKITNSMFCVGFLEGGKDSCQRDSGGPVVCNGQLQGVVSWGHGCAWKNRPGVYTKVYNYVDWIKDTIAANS
T1 sequence (Q6ZMR5 whole entry): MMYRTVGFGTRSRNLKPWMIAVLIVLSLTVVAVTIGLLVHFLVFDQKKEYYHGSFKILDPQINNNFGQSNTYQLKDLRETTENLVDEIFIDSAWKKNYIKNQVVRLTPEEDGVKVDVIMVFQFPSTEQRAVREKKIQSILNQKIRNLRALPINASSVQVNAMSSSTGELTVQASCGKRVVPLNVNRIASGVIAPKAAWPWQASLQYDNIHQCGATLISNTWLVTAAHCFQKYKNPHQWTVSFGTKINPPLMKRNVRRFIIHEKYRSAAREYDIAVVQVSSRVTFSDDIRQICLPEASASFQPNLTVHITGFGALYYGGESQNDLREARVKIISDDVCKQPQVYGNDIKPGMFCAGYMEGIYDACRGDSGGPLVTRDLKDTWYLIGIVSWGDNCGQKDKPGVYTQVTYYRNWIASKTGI
Chain of Human Kallikrein-8 (O60259 33-260): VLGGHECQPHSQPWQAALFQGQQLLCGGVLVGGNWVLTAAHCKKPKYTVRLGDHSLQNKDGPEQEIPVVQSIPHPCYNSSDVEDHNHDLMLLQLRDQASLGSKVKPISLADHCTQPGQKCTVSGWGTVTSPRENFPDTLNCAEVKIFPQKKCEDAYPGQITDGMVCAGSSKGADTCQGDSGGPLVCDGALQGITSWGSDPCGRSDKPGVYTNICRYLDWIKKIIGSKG
T7 sequence (P00742 235-488 limits assumed): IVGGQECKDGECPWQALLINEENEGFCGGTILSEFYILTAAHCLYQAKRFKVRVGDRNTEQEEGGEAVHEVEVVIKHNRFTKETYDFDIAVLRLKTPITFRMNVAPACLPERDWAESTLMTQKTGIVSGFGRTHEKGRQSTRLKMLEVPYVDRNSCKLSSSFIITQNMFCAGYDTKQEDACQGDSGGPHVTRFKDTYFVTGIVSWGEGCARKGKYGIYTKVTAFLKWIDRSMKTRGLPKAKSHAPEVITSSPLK
T7 sequence (P00742 41-179 partner limits assumed): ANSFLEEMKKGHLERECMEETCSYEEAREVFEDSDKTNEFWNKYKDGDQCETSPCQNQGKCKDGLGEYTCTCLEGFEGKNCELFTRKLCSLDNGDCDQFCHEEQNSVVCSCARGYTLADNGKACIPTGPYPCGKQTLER
T4 sequence (P00750 311-562 limits assumed): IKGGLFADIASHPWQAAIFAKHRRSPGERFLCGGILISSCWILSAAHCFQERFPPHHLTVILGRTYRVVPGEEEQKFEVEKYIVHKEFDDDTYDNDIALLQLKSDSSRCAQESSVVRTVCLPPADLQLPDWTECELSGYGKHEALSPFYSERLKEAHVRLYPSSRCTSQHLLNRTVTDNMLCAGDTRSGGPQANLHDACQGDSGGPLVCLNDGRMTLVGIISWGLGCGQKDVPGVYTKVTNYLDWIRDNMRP
T4 sequence (P00750 36-310 partner limits assumed): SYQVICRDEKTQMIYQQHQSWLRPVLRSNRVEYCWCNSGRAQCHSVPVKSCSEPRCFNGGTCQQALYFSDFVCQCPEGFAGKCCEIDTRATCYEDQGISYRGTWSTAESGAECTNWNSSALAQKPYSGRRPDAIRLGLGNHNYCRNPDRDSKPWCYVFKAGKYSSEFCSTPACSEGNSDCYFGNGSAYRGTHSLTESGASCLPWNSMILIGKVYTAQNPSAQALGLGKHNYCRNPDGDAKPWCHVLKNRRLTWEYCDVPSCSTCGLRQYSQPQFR
Chain of Human Kallikrein-1 (P06870 25-262): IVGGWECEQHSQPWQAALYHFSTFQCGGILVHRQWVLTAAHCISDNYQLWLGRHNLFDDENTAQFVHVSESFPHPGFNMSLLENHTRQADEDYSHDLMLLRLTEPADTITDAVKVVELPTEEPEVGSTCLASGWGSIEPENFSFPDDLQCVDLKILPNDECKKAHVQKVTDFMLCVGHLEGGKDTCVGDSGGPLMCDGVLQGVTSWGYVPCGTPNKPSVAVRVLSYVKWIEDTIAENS

In the case of “4-[[4-[(Aminoiminomethyl)amino]benzoyl]oxy] benzeneacetic acid 2-(dimethylamino)-2-oxoethyl ester methanesulfonate [camostat, reference compound]”, the “antiviral activity / viral replication” value [1] is reported as “inhibited” and the “inhibition of SARS-2-S-driven pseudotype entry” value [2] is reported as “inactive”.

With `CCOC(=O)N1CCN(C(=O)[C@H](Cc2cccc(C(=N)N)c2)NS(=O)(=O)c2c(C(C)C)cc(C(C)C)cc2C(C)C)CC1` [WX-UK1, N-α-(2,4,6-triisopropylphenylsulfonyl)-3-amidino-phenylalanine-4-ethoxycarbonylpiperazide] the Ki (Human Trypsin-6) was 0.1 ± 0.01 µM, the Ki (Human TMPRSS11(A)) was 0.39 ± 0.01 µM and the Ki (Human Enterokinase) was 0.71 ± 0.04 µM. The Ki (Human Thrombin) was 0.8 ± 0.1 µM, the Ki (Human uPA) was 0.9 ± 0.1 µM and the Ki (Human FXIa) was 0.9 ± 0.1 µM. It also gave a Ki (Human two-chain tPA) of 1.4 ± 0.1 µM, a Ki (Human HAT) of 1.5 ± 0.1 µM and a Ki (Human Plasmin) of 2.4 ± 0.3 µM. It also gave a Ki (Human FIXa) of 2.5 ± 0.2 µM, a Ki (Human Fxa) of 2.6 ± 0.4 µM and a Ki (Human TMPRSS2) of 2.9 ± 0.04 µM. The Ki (Human C1s) was 3.1 ± 0.4 µM, the Ki [3] was 3.9 ± 0.2 µM and the Ki (Human Hepsin) was 4.3 ± 0.5 µM. The Ki (Human Matriptase-2) was 6.4 ± 0.3 µM, the Ki (Human Spinesin) was 7.7 ± 0.5 µM and the Ki (Human DESC-1) was 13 ± 2 µM. For the same compound, the IC50 (Human PRSS27) was 19 ± 4 µM, the Ki (Human Plasma Kallikrein) was 26 ± 1 µM and the Ki (Human HGFA) was 28 ± 5 µM. The Ki (Human Granzyme A) was > 250 µM, the Ki (Human Kallikrein-8) was > 250 µM and the Ki (Human Kallikrein-1) was > 250 µM. For the same compound, the Ki (Human Kallikrein-11) was > 250 µM, the IC50 (Human Prostasin) was > 250 µM and the Ki (Rat uPA) was 0.4 ± 0.1 µM. The Ki [4] was 0.5 ± 0.1 µM, the Ki (Rabbit uPA) was 0.8 ± 0.1 µM and the Ki [5] was 2.9 ± 0.1 µM. The Ki [6] was 14 ± 0.4 µM, the Ki (Mouse uPA) was 45 ± 6 µM and the “antiviral activity / viral replication” value [1] was “potent antiviral activity; also recorded: inhibited”. For the same compound, the “infectious virus production, TCID50 assay in apical washes” value [1] was “dose-dependent reduction”, the “reduction in viral load by TCID50” value ([1]; lowest concentration 3.33 μg/ml, […]) was 4 log and the “inhibition of SARS-2-S-driven pseudotype entry” value [7] was “moderate inhibitory activity”. The “inhibition of SARS-2-S-driven pseudotype entry” value [2] was “moderate inhibitory activity”, the “inhibition of VSV-G entry” value [8] was “moderately inhibited” and the Ki (Human Trypsin-3) was 0.019 ± 0.004 µM. It also gave a Ki (Human Trypsin-2) of 0.075 ± 0.003 µM and a Ki (Human Trypsin-1) of 0.19 ± 0.01 µM.

`CCN(CC)CCCC(C)Nc1ccnc2cc(Cl)ccc12` (centres unmarked) [chloroquine] was tested, and the “inhibition of S protein-driven entry” value [2] was “potently inhibited”.
